{"source": "patent US20080057039A1", "about": "“Diagnostic and Therapeutic Treatments Related to Mitochondrial Disorders” (priority 2003, published 2008)", "molecules": {"B1": {"name": "FasL constructs: FasL fused to a linker peptide and a FLAG-tag that facilitate formation of active trimers (protein, UniProt P48023 130-281, looked up)", "Tumor necrosis factor ligand …": "QIGHPSPPPEKKELRKVAHLTGKSNSRSMPLEWEDTYGIVLLSGVKYKKGGLVINETGLYFVYSKVYFRGQSCNNLPLSHKVYMRNSKYPQDLVMMEGKMMSYCTTGQMWARSSYLGAVFNLTSADHLYVNVSELSLVNFEESQTFFGLYKL", "modifications": "linker, FLAG tag"}}, "key": {"[1]": {"tested_on": "DRG neurons", "assay": "dorsal root ganglia (DRG) neurite outgrowth assay", "format": "cell-based, mice", "settings": "for effect on Fas-induced neurite growth: DRGs stimulated through Fas; for neurite outgrowth from DRGs: neonatal mice", "source_text": "We have shown that engaging Fas on sensory neurons induces a rapid, extensive regenerative response. We used the dorsal root ganglia (DRG) neurite outgrowth assay to determine whether Fas engagement could induce axon regeneration in vitro. […] We cultured DRGs with anti-Fas antibodies, with isotype matched control antibodies (as a negative control) or with NGF (as a positive control).\nFas engagement induces neurite outgrowth and p35 upregulation in dorsal root ganglia (D)RG) explants. To determine whether Fas-induced activation of the ERK/p35 pathway in neuroblastoma cells correlated with neurite sprouting in primary neurons, we used the DRG neurite outgrowth assay, a well characterized model for axon regeneration from primary neurons in vitro (Harada, T. et al., 2001, Nat. Cell Biol., 3:453). DRGs are collections of sensory neuron cell bodies, together with supporting Schwann cells and fibroblasts. […] We examined Fas expression selectively on the DRG neurons by flow cytometric analysis of DRG cells positive for neuron-specific tubulin III, thus excluding Schwann cells and other non-neural cell types from the analysis. […] The uniform shift in fluorescence intensity, without the presence of distinct subpopulations, indicates uniform Fas expression on the DRG neurons (geometric mean fluorescence intensity shift from 10.95 with negative control staining to 22.39 with anti-Fas staining). DRG explants were cultured with anti-Fas antibodies, with isotype-matched control antibodies (as a negative control), or with NGF (as a positive control). […] Fas-induced neurite outgrowth was indistinguishable from NGF-induced neurite outgrowth kinetically and by morphological criteria (neurite numbers, length, and branching), and could not be differentiated by blinded observers. Fas-induced neurite growth was robust and prolific, completely filling the wells of 96-well plates after two weeks in culture. […] Thus, Fas engagement induced a rapid and prolific neurite outgrowth response in primary sensory neurons."}, "[2]": {"tested_on": "SH-SY5Y neuroblastoma cells", "assay": "Fas-induced apoptosis, cell cycle analysis by flow cytometry", "format": "cell-based, human", "settings": "for effect on apoptosis of FasL-treated neuroblastoma cells: SH-SY5Y, FasL constructs plus inhibitor", "source_text": "(§1) SH-SY5Y neuroblastoma cells are insensitive to Fas-mediated apoptosis. We used the well-characterized Fas-positive human neuroblastoma cell line SH-SY5Y to investigate Fas signaling in neuronal cells. Because Fas is best known as an inducer of apoptosis, we began by examining anti-Fas-treated SH-SY5Y cells for evidence of Fas-induced apoptosis. Jurkat cells, a human T cell leukemia line considered a model for Fas-mediated apoptosis (Wilson, D. et al., 1999, Cell Immunol., 194:67), provided a positive control. We confirmed that SH-SY5Y cells expressed cell surface Fas by flow cytometry. We then performed cell cycle analysis by flow cytometry on untreated and anti-Fas-treated Jurkat and SH-SY5Y cells after 48 hours in culture.\n(§2) As previously reported, Jurkat T cells underwent Fas-induced apoptosis (7.6+2.8% apoptotic cells in the untreated cultures versus 31.3±3.5% in the anti-Fas antibody-treated cultures) (Wilson, D. et al., 1999, Cell Lnmunol., 194:67). […] We then treated the cells with Fas Ligand (FasL) constructs, consisting of FasL fused to a linker peptide and a FLAG-tag that facilitate formation of active trimers. […] Conversely, blockade of the ERK pathway by the MEK1-specific inhibitor PD98059 had no effect on Jurkat apoptosis. […] In addition, we examined replicate populations of cells for evidence of caspase 8 cleavage as an indication of Fas-induced apoptosis, after 4 hours in culture with control antibodies or anti-Fas antibodies."}, "[3]": {"tested_on": "Jurkat cells", "assay": "Fas-induced apoptosis, cell cycle analysis by flow cytometry", "format": "cell-based, human", "settings": "for effect on apoptosis induction by FasL constructs: Jurkat cells, FasL constructs plus inhibitor", "source_text": "as §1, §2"}, "[4]": {"tested_on": "ERK", "assay": "ERK activation (dual phosphorylation at threonine 202 and tyrosine 204) in SH-SY5Y cells", "format": "cell-based, human", "settings": "for effect on Fas-induced ERK activation: plus inhibitor", "procedure": "Fas engagement induces ERK activation and p35 expression in SY-SHSY cells. Fas cross-linking has been reported to activate ERK in glioma cells (Shinohara, H. et al., 2000, Cancer Research, 60:1766). […] Fas-induced ERK activation was inhibited by PD98059, but appeared to be caspase 8 independent as it was not affected by […]. ERK activation was detected within five minutes of Fas engagement, and persisted for up to 150 minutes."}, "[5]": {"tested_on": "caspase 8", "assay": "caspase 8 cleavage in Jurkat cells", "format": "cell-based, human", "settings": "for effect on caspase 8 cleavage: Jurkat cells stimulated through Fas, plus inhibitor", "source_text": "as §2\n(§3) Furthermore, SH-SY5Y cells expressed dramatically less caspase 8 than did Jurkat cells, although they expressed similar levels of FLIP and of Fas. Low levels of caspase 8 expression and inefficient (or non-physiological) Fas ligation by anti-Fas antibody could have masked potential Fas-induced caspase 8 cleavage in SH-SY5Y cells. Therefore, we stimulated the cells with FasL constructs and normalized protein loading to equivalent caspase 8 (instead of equivalent total protein)."}, "[6]": {"tested_on": "p35", "assay": "Fas-induced p35 expression in SH-SY5Y cells", "format": "cell-based, human", "settings": "anti-Fas antibodies plus inhibitor", "procedure": "Sustained activation of ERK for more than 80 minutes was necessary and sufficient for NGF-inducible neurite outgrowth, and p35 upregulation driven by sustained ERK activation is an essential component of this pathway (Pang, L. et al., 1995, J. Biol. Chem., 270:13585; Harada, T. et al., 2001, Nat. Cell Biol., 3:453). Thus, we examined SH-SY5Y cells for Fas-induced p35 expression. […] Thus, Fas engagement-induced sustained ERK activation and MEKI / ERK-dependent p35 expression in SH-SY5Y neuroblastoma cells."}, "[7]": {"tested_on": "p35", "assay": "p35 upregulation in DRG explants (Western blots)", "format": "cell-based, mice", "settings": "24-hour stimulation, p35 normalized to actin", "source_text": "As in SH-SY5Y neurons, Fas engagement induced p35 upregulation in DRG explants after 24-hour stimulation. […] Fas-induced neurite growth is independent of NGF and caspase 8 function, but dependent on ERK activation."}, "[8]": {"tested_on": "B7.1", "assay": "cell surface B7.1 on C17.2 neuronal stem cells after H2O2", "format": "cell-based, mouse", "settings": "C17.2 cells, 24-hr exposure, 0.25 mM"}, "[9]": {"tested_on": "Fas (CD95)", "assay": "cell surface Fas on C17.2 neuronal stem cells after H2O2", "format": "cell-based, mouse", "settings": "C17.2 cells, 24-hr exposure, 0.25 mM", "procedure": "Non-permeabilized cells were stained with antibodies to the cell surface receptors Fas (CD95) (Pharmingen) or with antibodies to uncoupling proteins (anti-UCP2 antibody) (Alpha Diagnostic International). Antibodies for both the isotype control and actual stain were added to the cell suspension, mixed, and then placed on ice for and incubation of 25 minutes in the dark. Subsequently the cells were centrifuged at 300×g for 5 minutes and the supernatant removed. The cells were washed one time with 100 μL of PBS/2% FBS and then transferred into flow cyotmetric tubes containing 500 μL of PBS/2% FBS for analysis.\nWe have measured the levels of intracellular H2O2 in these cells. […] C17.2 cells from passage 15 contained 4-fold higher amount of UCP-2 than C17.2 cells at passage 11. Ts65Dn mice and controls fed regular and fatty acid enriched diet. The effects of dietary supplementation with alpha lipoic acid (LA) and […] (ALCAR) on the Ts65Dn mouse and the strain matched control animals have been examined. […] We attempted this supplementation with old (18 months) Ts65Dn mice.\nC17.2 mouse neuronal stem cells (a kind gift from Dr. Evan Schnyder, Harvard) were cultured as described in the Methods above. The cells were treated or not with H2O2 at the concentration indicated on the graphs of FIG. 2. […]"}, "[10]": {"tested_on": "caspase 8", "assay": "caspase 8 cleavage in SH-SY5Y cells", "format": "cell-based, human", "source_text": "as §2, §3"}}, "note": "“Also recorded” adds a separate entry of the source.", "data": [{"molecule": "COc1cccc(-c2cc(=O)c3ccccc3o2)c1N", "note": "[PD98059]", "values": [{"measurement": "toxicity to other DRG cells such as Schwann cells", "setting": "[1]; DRG explants", "value": "not toxic"}, {"measurement": "effect on Fas-induced neurite growth", "setting": "[1]", "value": "prevented"}, {"measurement": "effect on NGF-induced neurite outgrowth", "setting": "[1]; DRGs stimulated with NGF", "value": "blocked"}, {"measurement": "toxicity to DRG neurons", "setting": "[1]; inhibitor washed out after two days, restimulated with NGF or FasL constructs", "value": "did not kill the neurons"}, {"measurement": "effect on apoptosis of FasL-treated neuroblastoma cells", "setting": "[2]", "value": "Neither IETD nor PD98059 had any effect"}, {"measurement": "effect on apoptosis induction by FasL constructs", "setting": "[3]", "value": "no effect"}, {"measurement": "effect on Fas-induced ERK activation", "setting": "[4]", "value": "inhibited"}, {"measurement": "effect on caspase 8 cleavage", "setting": "[5]", "value": "unaffected"}, {"measurement": "effect on Fas-induced p35 upregulation", "setting": "[6]", "value": "prevented"}]}, {"molecule": "z-IETD-frnk", "values": [{"measurement": "effect on Fas-induced neurite growth", "setting": "[1]", "value": "not affected; also recorded: not blocked"}, {"measurement": "effect on apoptosis of FasL-treated neuroblastoma cells", "setting": "[2]", "value": "Neither IETD nor PD98059 had any effect"}, {"measurement": "effect on apoptosis induction by FasL constructs", "setting": "[3]", "value": "completely abrogated"}, {"measurement": "effect on Fas-induced ERK activation", "setting": "[4]", "value": "not affected"}, {"measurement": "effect on caspase 8 cleavage", "setting": "[5]", "value": "reduced to background levels"}]}, {"molecule": "nerve growth factor [NGF]", "values": [{"measurement": "neurite outgrowth from DRGs", "setting": "[1]; DRG explants", "value": "sprout neurites"}, {"measurement": "neurite outgrowth in dissociated DRG cultures", "setting": "[1]; glial growth suppressed with cytosine arabinoside", "value": "induced"}, {"measurement": "neurite outgrowth from DRGs of lpr mice", "setting": "[1]; lpr mice, low to absent Fas expression", "value": "delayed and diminished neurite outgrowth"}, {"measurement": "p35 upregulation compared to untreated DRGs", "setting": "[7]", "value": 3.3, "unit": "fold"}]}, {"molecule": "OO", "note": "[H2O2]", "values": [{"measurement": "cell surface expression of B7.1", "setting": "[8]", "value": "increased"}, {"measurement": "cell surface expression of Fas (CD95)", "setting": "[9]", "value": "increased"}]}, {"molecule": "B1", "values": [{"measurement": "neurite outgrowth from DRGs", "setting": "[1]; DRG explants", "value": "induced robust neurite growth"}, {"measurement": "induction of caspase 8 cleavage", "setting": "[10]", "value": "no increase"}, {"measurement": "apoptotic response", "setting": "[2]; SH-SY5Y cells", "value": "failed to induce any detectable apoptotic response"}, {"measurement": "apoptotic cells", "setting": "[3]; Jurkat, after 24 hour treatment", "value": "> 90", "unit": "%"}, {"measurement": "ERK activation", "setting": "[4]", "value": "triggered ERK activation"}, {"measurement": "increase of caspase 8 cleavage, treated versus untreated cells", "setting": "[5]; Jurkat cells, loading normalized to equivalent caspase 8", "value": "more than 60%"}]}]}
